One molecule from article PMC6508677, “Identification of druggable small molecule antagonists of the Plasmodium falciparum hexose transporter PfHT and assessment of ligand access to the glucose permeation pathway via FLAG-mediated protein engineering” (PLoS ONE, 2019) can be followed below.

Several values for one entry are separate records, joined by “and”; a condition that tells them apart may be missing. Equal values may be shown once. Read-outs that look alike come from different tables or passages of the source.

Test [1] concerns P. falciparum strain 3D7 freed parasites. The test is described as follows: 2-DG uptake by isolated freed P. falciparum parasites. In kind it is cell-based, Plasmodium falciparum. As to the method:
(§1) Glucose uptake by P. falciparum was performed essentially as described. P. falciparum strain 3D7 was cultured in 100 mm tissue culture dishes (Techno Plastic Products) in a 2% suspension of human erythrocytes and RPMI 1640 medium until reaching > 7.5% parasitemia. Cells were pelleted via centrifugation and resuspended in RPMI 1640 medium. To determine the uptake of radiolabeled glucose into the parasite, parasites were isolated from infected erythrocytes by permeablization with saponin (0.05 w/v), followed by centrifugation, aspiration of supernatant and washing of the pellet 3X with saline solution (135 mM NaCl, 2 mM KCl, 25 mM HEPES, 0.2 mM glucose and 1 mM MgCl2; pH 7.1) to remove cellular debris. WU-1 or DMSO vehicle were added to 100 μl parasites (resuspended in saline) 5 min prior to the addition of 100 μl [^14C]2-DOG (0.2- μCi/ml final concentration). 2-DG uptake was stopped after 2 min by layering the entire reaction over 300 μl of an oil mixture (5:4 mix of dibutyl phthalate / dinonyl phthalate) in Eppendorf tubes and centrifuged at 15,850 × g for 2 mins. The ratio of the estimated intracellular concentration of radiolabel relative to the extracellular concentration were calculated as described. Uptake of radiolabeled hexose into HEK293 cells was measured in glucose-free HBSS as described previously. Briefly, cells were plated at 400,000 cells/well overnight at 37°C in 24-well plates pre-treated with PEI. After 30-min incubation at 37°C in glucose-free HBSS in the presence of vehicle or increasing concentrations of compound, 2-DG uptake was measured in glucose-free HBSS for 4 min at 37°C. Cultures were washed in ice-cold 1X PBS and lysed in 0.1% Triton X-100 in 1X PBS. Radiolabeled hexose uptake was determined by liquid scintillation counting (Ultima Gold, Thermo Fisher) and normalized to total protein per well. Uptake data are plotted as percent uptake relative to vehicle-treated cells. Kinetic analyses were performed using the indicated concentrations of substrate and WU-1, with quenching of uptake after 1 min incubation. Incubation times had been previously determined as being in the linear range of time-dependent radiolabeled hexose uptake (2 min for 2-DG uptake into freed parasites; 2 and 4 min for D-Frc and 2-DG uptake HEK cell lines, respectively). Data were fit by least squares nonlinear regression analysis using GraphPad Prism 6.0 software.

The next test addresses T1, PfHT (Plasmodium falciparum, UniProt Q7KWJ5).
T1 sequence (Q7KWJ5 1-504): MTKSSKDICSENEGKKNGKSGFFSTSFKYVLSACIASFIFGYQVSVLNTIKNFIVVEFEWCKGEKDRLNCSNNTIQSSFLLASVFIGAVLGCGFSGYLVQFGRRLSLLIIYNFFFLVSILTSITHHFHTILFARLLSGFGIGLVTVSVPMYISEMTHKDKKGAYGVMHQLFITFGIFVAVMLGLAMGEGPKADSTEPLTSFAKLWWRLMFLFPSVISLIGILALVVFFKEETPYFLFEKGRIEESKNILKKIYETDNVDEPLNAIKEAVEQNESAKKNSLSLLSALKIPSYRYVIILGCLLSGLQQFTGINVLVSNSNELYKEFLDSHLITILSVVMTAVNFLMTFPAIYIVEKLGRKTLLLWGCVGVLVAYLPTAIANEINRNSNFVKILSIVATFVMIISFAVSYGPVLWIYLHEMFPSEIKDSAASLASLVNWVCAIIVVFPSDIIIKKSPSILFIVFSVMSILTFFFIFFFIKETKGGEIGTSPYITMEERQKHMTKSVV
The test is described as follows: [3H]-D-fructose uptake by HEK293 cells overexpressing PfHT. Details: expressed in transfected cells; host or cells: HEK293 (HEK293-FLIP, native hGLUT1 knocked down by shRNA). The test is classed as cell-based.
Description: Generation of HEK293 cells overexpressing PfHT and human GLUTs 1–4 were described elsewhere. Briefly, HEK293 cells were transfected with pcDNA3.1 FLII12Pglu-7006 (Addgene), containing the fluorescence resonance energy transfer (FRET) glucose sensor (HEK293-FLIP) and PfHT, human GLUT1 (hGLUT1), hGLUT2, hGLUT3, hGLUT4, hGLUT5 or hGLUT8 using Optifect (Life Technologies) according to manufacturer’s specifications. To increase retention of GLUT8 at the plasma membrane, the dileucine sorting signal E^7E^8XXXLL was modified to R^7R^8XXXLL as described in [17]. Stable transfectants were selected for G418 and hygromycin resistance to select for FRET sensor and hexose transporter, respectively. HEK293-FLIP cells were also used to generate cells stably transfected with FLAG-tagged PfHT (FTPfHT). FLAG tag ([…]) followed by a triple glycine linker and a tobacco etch virus (TEV) protease site (ENLYFQS) followed by a triple glycine linker was added to the N-terminus of PfHT via PCR [18] using Phusion Hot Start II High-Fidelity DNA Polymerase (Fisher Scientific). Single clones were selected by comparing their abilities to transport glucose as assayed via FRET and radiolabeled hexose uptake. In all cell lines, except for HEK293 cells overexpressing hGLUT1 and hGLUT5, native hGLUT1 was knocked down using shRNA as described elsewhere. Transcript levels of the individual GLUTs expressed in each cell line are as described in [13, 15] and in S1 Fig.
as §1

One may read the IC50 as the midpoint of a concentration-inhibition curve.

Consider `Cc1ccc(S(=O)(=O)CCNC(=O)c2c(-c3c(Cl)cccc3Cl)noc2C)cc1` [WU-1, 3-(2,6-dichlorophenyl)-5-methyl-N-[2-(4-methylbenzenesulfonyl)ethyl]-1,2-oxazole-4-carboxamide], for which the “2-DG uptake by freed parasites (normalised to 100), AVE per experiment” value in test [1] (0.001 µM WU-1) is 100.00; in test [1] (8.33 µM WU-1), 54.38 and 56.80 and 54.68; in test [1] (25 µM WU-1), 40.52 and 37.08 and 35.20; in test [1] (75 µM WU-1), 20.23 and 31.42 and 24.43; in test [1] (225 µM WU-1), 17.01 and 18.91 and 19.76. Also, the IC50 in test [1] (Expt 1-3, read-out: IC50 for 2-DG uptake by freed parasites, individual experiments) was 6.6 µM and 4.5 µM; in test [1] (Plasmodium falciparum, 3D7, Expt 1-3, read-out: IC50 for 2-DG uptake by freed parasites, individual experiments), 7.2 µM; in test [1] (Plasmodium falciparum, 3D7, isolated P. falciparum trophozoites, mean, read-out: IC50 for 2-DG uptake by freed parasites), 6.1 ± 0.8 µM; at PfHT (AVE IC50 (µM), PfHT, D-frc Uptake, average of Expt 1-3), 4.99 µM; at PfHT (IC50 (µM), PfHT, D-frc Uptake, single experiments Expt 1-3) it was 4.57 µM and 6.26 µM and 4.14 µM; at PfHT (IC50, D-fructose (Frc) uptake, PfHT cell line), 5 ± 0.7 µM. The remaining activity at 0.001 µM on PfHT (HEK293, 2 min, read-out: D-frc Uptake AVE, PfHT, concentration 0.001 µM, Expt 1-3) stood at 101%. Also, the remaining activity at 0.63 µM at PfHT (HEK293, 2 min, read-out: D-frc Uptake AVE, PfHT, concentration 0.63 µM) came out at 80.7%. Further, the remaining activity at 1.25 µM on PfHT (HEK293, 2 min, read-out: D-frc Uptake AVE, PfHT, concentration 1.25 µM) turned out to be 72.3%. Also, the remaining activity at 2.5 µM at PfHT (HEK293, 2 min, read-out: D-frc Uptake AVE, PfHT, concentration 2.50 µM) amounted to 68.5%. Further, the remaining activity at 5 µM at PfHT (HEK293, 2 min, read-out: D-frc Uptake AVE, PfHT, concentration 5.00 µM) was 49.6%. Also, on PfHT (HEK293, 2 min, read-out: D-frc Uptake AVE, PfHT, concentration 10.00 µM), the remaining activity at 10 µM is 37.9%. The remaining activity at 20 µM on PfHT (HEK293, 2 min, read-out: D-frc Uptake AVE, PfHT, concentration 20.00 µM) stood at 22.3%. Further, at PfHT (HEK293, 2 min, read-out: D-frc Uptake AVE, PfHT, concentration 40.00 µM), the remaining activity at 40 µM amounted to 15.6%. For the same molecule, the remaining activity at 80 µM at PfHT (HEK293, 2 min, read-out: D-frc Uptake AVE, PfHT, concentration 80.00 µM) came to 10.7%. In addition, the remaining activity at 225 µM on PfHT (HEK293, 2 min, read-out: D-frc Uptake AVE, PfHT, concentration 225.00 µM) stood at 8.85%. In addition, the remaining activity at 160 µM on PfHT (HEK293, 2 min, read-out: D-frc Uptake AVE, PfHT, concentration […]) is 7.62%. Also, the “Selectivity Index, Frc, PfHT line itself” value at PfHT (reference value) amounted to 1.0.
